# Results as given in ChEMBL document CHEMBL1201862, “PubChem BioAssay data set” (2004).
# Calls of active or inactive are those of the source.
# Experiments:
# [1] = target: Voltage-gated inwardly rectifying potassium channel KCNH2 (Homo sapiens, UniProt Q12809); settings: Potency;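 further: confirmatory quantitative high-throughput screen measuring inhibition of hERG channel activity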
# [2] = target: 5-hydroxytryptamine receptor 2A (Mus musculus, UniProt P35363); type: functional, cell-based;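 further: CHO-K1 cells with tagged receptor and beta-arrestin; agonist potency measured as compound-induced activation of the receptor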
# Mu-type opioid receptor = Mu-type opioid receptor (Homo sapiens, UniProt P35372); type: functional, cell-based;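 further: U2OS cells with beta-arrestin recruitment to OPRM1 by beta-gal complementation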
# Bcl-2-related protein A1 = target: T1, Bcl-2-related protein A1 (Mus musculus, UniProt Q07440); type: functional;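 further: confirmatory dose–response counterscreen on Bfl-1, used to check hits from a UBC13 polyubiquitin inhibitor campaign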
# T1 sequence (Q07440 whole entry): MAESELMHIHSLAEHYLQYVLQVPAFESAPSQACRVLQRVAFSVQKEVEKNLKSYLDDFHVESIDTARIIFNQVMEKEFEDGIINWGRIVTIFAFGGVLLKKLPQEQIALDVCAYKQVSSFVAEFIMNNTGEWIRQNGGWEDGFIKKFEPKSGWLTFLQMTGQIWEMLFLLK
# [3] = Trypanosoma cruzi growth suppression in host cells – NIH3T3 host cells, beta-gal luminescence, confirmation (AID 2044); type: functional, cell-based;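 further: intracellular parasites grown in NIH/3T3 mouse fibroblasts as host cells; luminescent beta-galactosidase reporter signal from transgenic T. cruzi replicating inside host cells; inhibitors lower the luminescence signal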
# [4] = NIH3T3 cell viability loss – ATP luminescence, mouse fibroblasts, counter-screen, dose response (AID 2010); type: functional, cell-based;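 further: cells exposed to compound for about 90 hours before reading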
# [5] = target: T2, Ubiquitin-conjugating enzyme E2 N (Homo sapiens, UniProt P61088); type: functional
# T2 sequence (P61088 whole entry): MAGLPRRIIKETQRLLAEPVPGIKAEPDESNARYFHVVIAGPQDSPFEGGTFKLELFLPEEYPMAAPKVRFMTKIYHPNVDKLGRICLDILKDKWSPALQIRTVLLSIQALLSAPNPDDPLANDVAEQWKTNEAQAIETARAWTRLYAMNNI
# [6] = microbe, parasite or virus in culture; type: functional; settings: Mycobacterium tuberculosis
# [7] = target: T2, Ubiquitin-conjugating enzyme E2 N; type: functional; remark: listed apart in the source
# Coagulation factor XII = target: T3, Coagulation factor XII (Homo sapiens, UniProt P00748); type: functional;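 further: activated factor XIIa alpha cleaving a fluorogenic AMC peptide substrate; inhibitor potency from loss of enzyme activity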
# T3 sequence (P00748 whole entry): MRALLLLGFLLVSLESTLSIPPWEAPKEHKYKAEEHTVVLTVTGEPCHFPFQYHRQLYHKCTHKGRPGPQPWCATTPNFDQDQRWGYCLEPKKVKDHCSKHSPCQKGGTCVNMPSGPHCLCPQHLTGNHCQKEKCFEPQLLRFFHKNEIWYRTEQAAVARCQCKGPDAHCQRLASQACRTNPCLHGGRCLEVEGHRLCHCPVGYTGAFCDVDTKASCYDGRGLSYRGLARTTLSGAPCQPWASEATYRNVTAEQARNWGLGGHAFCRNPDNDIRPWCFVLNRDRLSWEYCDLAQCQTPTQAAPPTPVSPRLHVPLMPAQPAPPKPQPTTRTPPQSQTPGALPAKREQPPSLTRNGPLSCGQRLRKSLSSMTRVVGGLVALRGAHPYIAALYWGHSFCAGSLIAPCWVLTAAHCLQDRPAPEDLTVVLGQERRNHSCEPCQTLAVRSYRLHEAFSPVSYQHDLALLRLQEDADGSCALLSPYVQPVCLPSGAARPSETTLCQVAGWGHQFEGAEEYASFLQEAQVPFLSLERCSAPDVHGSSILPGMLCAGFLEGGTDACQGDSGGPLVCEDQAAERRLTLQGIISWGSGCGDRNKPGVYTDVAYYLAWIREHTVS
# [8] = target: T4, Mannose-6-phosphate isomerase (Homo sapiens, UniProt P34949); experiment: phosphomannose isomerase inhibition – biochemical, fluorescence intensity, confirmation (AID 1535)
# T4 sequence (P34949 whole entry): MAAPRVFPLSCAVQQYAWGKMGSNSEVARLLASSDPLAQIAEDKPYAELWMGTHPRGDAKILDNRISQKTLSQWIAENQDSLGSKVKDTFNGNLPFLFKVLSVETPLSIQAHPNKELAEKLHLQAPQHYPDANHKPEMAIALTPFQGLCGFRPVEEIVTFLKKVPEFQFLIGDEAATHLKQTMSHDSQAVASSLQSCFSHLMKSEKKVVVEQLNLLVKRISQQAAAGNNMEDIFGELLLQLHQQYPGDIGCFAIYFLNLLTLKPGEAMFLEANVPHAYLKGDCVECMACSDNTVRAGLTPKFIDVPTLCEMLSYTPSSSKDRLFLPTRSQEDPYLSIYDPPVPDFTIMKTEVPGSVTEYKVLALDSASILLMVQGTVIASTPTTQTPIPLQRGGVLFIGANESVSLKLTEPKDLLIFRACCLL
# Phosphomannomutase 2 = target: T5, Phosphomannomutase 2 (Homo sapiens, UniProt O15305); experiment: Counter screen SAR assay for PMM2 inhibitors via a fluorescence intensity assay. [Related pubchem assays (depositor defined):AID1545, AID1574]
# T5 sequence (O15305 whole entry): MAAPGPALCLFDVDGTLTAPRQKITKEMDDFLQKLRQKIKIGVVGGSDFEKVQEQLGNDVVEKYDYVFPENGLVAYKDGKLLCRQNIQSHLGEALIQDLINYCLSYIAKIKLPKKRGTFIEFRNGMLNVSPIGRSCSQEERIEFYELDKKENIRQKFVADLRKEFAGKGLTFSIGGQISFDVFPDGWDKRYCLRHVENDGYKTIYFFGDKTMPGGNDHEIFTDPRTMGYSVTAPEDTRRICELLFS
# Cytochrome P450 2C9 = Cytochrome P450 2C9 (Homo sapiens, UniProt P11712)
# [9] = target: T6, Heat shock factor protein 1 (Mus musculus, UniProt P38532); experiment: decrease of HSF1-responsive luciferase luminescence – cell-based, NIH3T3, dose retest, confirmation (AID 2382); type: functional;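 further: NIH3T3 fibroblasts with HSF1-driven luciferase reporter stressed by proteasome inhibitor MG132; luminescence from HSF1-driven luciferase expression after 8 hours of MG132 stress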
# T6 sequence (P38532 whole entry): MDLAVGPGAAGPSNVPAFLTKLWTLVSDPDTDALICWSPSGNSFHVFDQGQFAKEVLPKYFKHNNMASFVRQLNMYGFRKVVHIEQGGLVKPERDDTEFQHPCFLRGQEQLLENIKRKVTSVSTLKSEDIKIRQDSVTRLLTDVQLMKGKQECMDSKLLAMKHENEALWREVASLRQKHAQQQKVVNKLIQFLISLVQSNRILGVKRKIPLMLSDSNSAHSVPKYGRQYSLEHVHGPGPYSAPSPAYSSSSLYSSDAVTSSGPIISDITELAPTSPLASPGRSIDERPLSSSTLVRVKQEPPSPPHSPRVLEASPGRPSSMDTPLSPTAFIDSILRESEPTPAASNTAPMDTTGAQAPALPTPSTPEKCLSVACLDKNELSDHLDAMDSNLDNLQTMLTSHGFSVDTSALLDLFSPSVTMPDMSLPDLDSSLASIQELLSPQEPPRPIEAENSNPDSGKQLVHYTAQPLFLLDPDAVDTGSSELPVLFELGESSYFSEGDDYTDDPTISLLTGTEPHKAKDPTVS
# [10] = alpha-synuclein stem-loop luciferase translation blockers – H4 neuroglioma cells, luminescence, confirmation (AID 1988); type: functional, cell-based
# [11] = luciferase reporter signal suppression in cells – H4 neuroglioma cells, luminescence, dose response (AID 1990); type: functional, cell-based
# HEK293 = experiment: HEK293T cell viability loss, resazurin readout – resazurin fluorescence, cytotoxicity control for NF-kB activator project, SAR follow-up (AID 493251); type: functional, cell-based; settings: Homo sapiens
# [12] = target: Dual specificity tyrosine-phosphorylation-regulated kinase 1A (Rattus norvegicus, UniProt Q63470); type: biochemical, Homo sapiens
# [13] = target: Peroxisome proliferator-activated receptor gamma/Nuclear receptor coactivator 2 (Homo sapiens, UniProt P37231); experiment: (§1) TR-FRET dose response biochemical High Throughput Screening assay for agonists of the steroid receptor coactivator 2 (SRC-2) recruitment by the peroxisome proliferator-activated receptor gamma (PPAR gamma): non-selective agonists. [Related pubchem assays: 1297, 1032 ]; type: functional
# [14] = target: Peroxisome proliferator-activated receptor gamma/Nuclear receptor coactivator 1 (Homo sapiens, UniProt P37231); experiment: as §1, with “1 (SRC-1)” for “2 (SRC-2)”, “assays (depositor defined):AID1300, AID1808, AID504735, AID631]” for “assays: 1297, 1032 ]”; type: protein assay
# [15] = target: Peroxisome proliferator-activated receptor gamma/Nuclear receptor coactivator 3 (Homo sapiens, UniProt P37231); experiment: as §1, with “3 (SRC-3)” for “2 (SRC-2)”, “1301 (Confirmation screen.), 1048 (Primary screen.)]” for “1297, 1032 ]”; type: functional
# CAAX prenyl protease 2 = target: T7, CAAX prenyl protease 2 (Saccharomyces cerevisiae S288c, UniProt Q03530); type: biochemical
# T7 sequence (Q03530 whole entry): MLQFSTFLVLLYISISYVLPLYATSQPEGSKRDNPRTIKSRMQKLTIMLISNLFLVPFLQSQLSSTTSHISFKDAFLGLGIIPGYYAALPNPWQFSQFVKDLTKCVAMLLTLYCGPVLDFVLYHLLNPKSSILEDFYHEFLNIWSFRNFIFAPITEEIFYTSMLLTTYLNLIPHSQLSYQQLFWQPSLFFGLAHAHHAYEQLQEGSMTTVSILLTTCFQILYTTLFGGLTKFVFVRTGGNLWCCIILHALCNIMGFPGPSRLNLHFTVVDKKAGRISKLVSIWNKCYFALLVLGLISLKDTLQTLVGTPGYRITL
# Hexokinase = target: T8, Hexokinase (Trypanosoma brucei, UniProt Q38C41); experiment: Confirmation assay for inhibitors of Trypanosoma brucei hexokinase 1-Analogue-first series. [Related pubchem assays (depositor defined):AID1430, AID1632, AID2516, AID2560, AID2579, AID2600, AID449725, AID492951]; type: functional
# T8 sequence (Q38C41 whole entry): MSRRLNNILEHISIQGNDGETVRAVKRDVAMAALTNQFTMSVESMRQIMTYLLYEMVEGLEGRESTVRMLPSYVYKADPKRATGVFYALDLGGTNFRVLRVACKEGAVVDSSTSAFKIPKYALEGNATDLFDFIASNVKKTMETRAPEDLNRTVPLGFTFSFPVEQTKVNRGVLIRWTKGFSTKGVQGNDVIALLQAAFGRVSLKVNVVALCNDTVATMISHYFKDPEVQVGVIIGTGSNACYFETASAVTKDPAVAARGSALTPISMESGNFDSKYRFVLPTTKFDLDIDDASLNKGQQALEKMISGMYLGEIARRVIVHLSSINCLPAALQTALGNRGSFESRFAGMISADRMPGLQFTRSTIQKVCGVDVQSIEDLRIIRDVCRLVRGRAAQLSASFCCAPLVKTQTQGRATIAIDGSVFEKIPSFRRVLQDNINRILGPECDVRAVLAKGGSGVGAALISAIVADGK
# Chain of Cytochrome P450 2C9 (P11712 whole entry): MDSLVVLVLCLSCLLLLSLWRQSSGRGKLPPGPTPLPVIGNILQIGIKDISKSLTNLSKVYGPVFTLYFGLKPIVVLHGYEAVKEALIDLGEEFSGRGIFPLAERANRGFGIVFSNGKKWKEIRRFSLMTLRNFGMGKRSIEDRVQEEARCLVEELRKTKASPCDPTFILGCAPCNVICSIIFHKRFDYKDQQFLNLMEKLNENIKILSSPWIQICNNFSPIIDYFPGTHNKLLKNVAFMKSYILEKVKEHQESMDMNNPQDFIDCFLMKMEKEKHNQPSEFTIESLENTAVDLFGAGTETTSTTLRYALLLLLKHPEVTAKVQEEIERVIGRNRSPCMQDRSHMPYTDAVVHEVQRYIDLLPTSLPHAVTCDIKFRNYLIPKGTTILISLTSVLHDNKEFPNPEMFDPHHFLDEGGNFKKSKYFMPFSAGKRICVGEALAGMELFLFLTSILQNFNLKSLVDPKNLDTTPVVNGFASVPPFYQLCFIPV
# Chain of Voltage-gated inwardly rectifying potassium channel KCNH2 (Q12809 whole entry): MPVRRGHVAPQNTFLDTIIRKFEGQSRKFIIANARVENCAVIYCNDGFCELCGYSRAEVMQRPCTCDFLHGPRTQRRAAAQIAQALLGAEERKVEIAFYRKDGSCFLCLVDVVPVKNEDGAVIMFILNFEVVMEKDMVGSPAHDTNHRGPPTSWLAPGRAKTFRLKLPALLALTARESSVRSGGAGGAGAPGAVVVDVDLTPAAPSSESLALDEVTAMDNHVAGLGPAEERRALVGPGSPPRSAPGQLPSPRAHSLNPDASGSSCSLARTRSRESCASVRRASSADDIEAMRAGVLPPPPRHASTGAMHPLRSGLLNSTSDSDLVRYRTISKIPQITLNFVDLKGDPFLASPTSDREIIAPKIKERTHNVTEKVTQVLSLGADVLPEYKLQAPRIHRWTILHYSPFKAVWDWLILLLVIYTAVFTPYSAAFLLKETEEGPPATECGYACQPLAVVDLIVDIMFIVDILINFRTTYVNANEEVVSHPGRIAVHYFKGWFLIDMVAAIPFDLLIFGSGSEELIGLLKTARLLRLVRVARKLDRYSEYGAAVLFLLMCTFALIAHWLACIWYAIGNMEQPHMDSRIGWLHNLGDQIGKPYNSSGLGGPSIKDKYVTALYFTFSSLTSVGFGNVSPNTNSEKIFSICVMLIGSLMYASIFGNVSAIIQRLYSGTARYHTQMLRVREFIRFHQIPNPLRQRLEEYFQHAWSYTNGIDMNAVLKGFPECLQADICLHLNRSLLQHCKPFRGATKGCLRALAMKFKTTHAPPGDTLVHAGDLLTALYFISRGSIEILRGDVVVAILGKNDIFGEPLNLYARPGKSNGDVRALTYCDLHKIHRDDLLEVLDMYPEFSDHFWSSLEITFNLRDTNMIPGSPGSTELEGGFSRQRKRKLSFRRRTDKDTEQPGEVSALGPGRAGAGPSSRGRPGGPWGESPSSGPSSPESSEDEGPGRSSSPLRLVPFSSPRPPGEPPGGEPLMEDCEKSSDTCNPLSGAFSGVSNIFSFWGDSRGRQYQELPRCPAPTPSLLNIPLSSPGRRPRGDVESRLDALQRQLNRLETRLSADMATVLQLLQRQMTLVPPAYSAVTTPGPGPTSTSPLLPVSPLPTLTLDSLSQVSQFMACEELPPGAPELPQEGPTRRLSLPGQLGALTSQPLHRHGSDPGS
# Chain of Peroxisome proliferator-activated receptor gamma/Nuclear receptor coactivator 1 (P37231 whole entry): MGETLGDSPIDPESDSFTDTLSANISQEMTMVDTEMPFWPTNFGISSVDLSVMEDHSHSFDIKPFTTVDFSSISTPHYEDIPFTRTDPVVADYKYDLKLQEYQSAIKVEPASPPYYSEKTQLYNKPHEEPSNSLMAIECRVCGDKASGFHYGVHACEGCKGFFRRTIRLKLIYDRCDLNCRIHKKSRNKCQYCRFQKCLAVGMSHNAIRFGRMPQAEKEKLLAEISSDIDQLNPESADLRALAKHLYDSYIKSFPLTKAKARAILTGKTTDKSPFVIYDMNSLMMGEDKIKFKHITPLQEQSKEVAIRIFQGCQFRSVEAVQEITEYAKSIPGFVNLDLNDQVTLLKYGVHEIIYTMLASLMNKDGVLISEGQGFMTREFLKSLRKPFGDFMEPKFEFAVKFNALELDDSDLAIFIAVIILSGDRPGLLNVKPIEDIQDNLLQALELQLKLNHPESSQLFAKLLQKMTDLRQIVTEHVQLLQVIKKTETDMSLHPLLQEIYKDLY
# Chain of Peroxisome proliferator-activated receptor gamma/Nuclear receptor coactivator 1 (Q15788 whole entry, further chain): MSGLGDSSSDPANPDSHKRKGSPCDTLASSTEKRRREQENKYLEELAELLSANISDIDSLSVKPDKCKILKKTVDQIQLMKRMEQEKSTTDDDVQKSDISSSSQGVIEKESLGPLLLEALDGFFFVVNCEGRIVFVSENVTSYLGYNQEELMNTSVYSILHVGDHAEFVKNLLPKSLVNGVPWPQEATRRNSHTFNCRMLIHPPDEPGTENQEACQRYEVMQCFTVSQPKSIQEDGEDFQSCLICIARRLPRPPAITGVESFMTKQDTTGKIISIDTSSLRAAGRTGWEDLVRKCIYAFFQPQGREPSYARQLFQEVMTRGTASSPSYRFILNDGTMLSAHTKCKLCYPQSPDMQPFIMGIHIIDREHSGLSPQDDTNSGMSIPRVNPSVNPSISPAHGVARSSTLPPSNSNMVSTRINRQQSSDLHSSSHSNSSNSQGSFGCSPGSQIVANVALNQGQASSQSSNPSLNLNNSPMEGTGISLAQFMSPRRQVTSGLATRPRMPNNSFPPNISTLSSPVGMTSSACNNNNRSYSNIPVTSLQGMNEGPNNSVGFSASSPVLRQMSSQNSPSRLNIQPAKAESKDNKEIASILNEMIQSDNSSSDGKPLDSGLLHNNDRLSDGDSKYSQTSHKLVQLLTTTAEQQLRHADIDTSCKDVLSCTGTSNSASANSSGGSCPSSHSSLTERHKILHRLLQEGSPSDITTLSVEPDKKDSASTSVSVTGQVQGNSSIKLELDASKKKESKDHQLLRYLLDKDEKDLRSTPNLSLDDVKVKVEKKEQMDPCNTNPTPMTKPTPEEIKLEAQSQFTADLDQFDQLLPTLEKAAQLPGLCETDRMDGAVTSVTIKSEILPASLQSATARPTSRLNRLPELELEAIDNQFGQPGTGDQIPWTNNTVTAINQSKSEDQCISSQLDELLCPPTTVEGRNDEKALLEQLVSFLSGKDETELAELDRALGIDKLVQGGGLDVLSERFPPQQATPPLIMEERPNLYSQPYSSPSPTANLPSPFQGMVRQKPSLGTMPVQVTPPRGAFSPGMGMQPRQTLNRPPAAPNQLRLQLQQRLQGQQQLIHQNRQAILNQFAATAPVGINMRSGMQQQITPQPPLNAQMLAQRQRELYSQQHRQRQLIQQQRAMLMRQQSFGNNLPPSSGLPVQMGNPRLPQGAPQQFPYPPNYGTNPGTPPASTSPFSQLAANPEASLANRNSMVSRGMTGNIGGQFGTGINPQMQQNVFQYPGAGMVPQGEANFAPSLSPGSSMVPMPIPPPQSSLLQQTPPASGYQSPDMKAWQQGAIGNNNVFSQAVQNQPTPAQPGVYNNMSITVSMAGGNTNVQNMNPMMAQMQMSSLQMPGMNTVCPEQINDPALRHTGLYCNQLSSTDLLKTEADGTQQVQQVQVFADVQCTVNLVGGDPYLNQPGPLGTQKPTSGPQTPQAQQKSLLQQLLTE
# Chain of Mu-type opioid receptor (P35372 whole entry): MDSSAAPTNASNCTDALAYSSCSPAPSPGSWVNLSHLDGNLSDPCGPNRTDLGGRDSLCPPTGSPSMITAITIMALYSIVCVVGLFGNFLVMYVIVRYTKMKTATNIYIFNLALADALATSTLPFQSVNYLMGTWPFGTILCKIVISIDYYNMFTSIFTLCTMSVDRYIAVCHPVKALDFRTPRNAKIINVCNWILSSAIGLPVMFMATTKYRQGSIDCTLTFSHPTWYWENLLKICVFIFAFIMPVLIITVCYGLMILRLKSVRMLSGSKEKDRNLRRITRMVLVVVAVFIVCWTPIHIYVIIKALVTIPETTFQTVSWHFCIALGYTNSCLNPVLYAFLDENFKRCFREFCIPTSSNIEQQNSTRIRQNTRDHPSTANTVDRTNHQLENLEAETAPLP
# Chain of 5-hydroxytryptamine receptor 2A (P35363 whole entry): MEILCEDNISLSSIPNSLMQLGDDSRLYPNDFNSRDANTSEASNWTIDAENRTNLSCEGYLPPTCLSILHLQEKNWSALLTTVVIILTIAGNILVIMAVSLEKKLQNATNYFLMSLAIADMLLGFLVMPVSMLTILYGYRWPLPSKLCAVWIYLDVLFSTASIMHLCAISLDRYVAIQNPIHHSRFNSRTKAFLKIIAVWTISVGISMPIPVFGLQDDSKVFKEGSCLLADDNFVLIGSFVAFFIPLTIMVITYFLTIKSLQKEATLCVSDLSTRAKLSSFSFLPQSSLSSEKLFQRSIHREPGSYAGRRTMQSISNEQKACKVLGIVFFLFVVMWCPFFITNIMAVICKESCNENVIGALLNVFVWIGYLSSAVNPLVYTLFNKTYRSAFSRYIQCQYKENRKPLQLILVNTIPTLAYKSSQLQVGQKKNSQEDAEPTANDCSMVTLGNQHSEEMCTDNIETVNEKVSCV
smiles,measurement,setting,value
Cn1cc(C(F)(F)F)nc1-c1ccc(OCC(O)CNCCOc2ccc(O)c(C(N)=O)c2)cc1 (configuration not stated),AC50,[1],25.1 µM (inconclusive)
same,EC50,[2],0.0952 µM (active)
same,EC50,Mu-type opioid receptor,92.4 µM (inactive)
CC1Cc2cc3c(cc2C(c2ccc(N)cc2)=NN1)OCO3 (configuration not stated),AC50,[1],35.5 µM (inconclusive)
CCCCN(C)CCNC(=O)c1ccc(Cn2c(=S)[nH]c3ccc(Br)cc3c2=O)cc1,IC50,Bcl-2-related protein A1,> 20 µM (inactive)
same,EC50,[3],0.606 µM (active)
same,EC50,[4],> 60 µM (not active)
same,IC50,[5],> 20 µM (inactive)
same,CC50,[6],19.1 µM (active)
same,IC50,[7],19.5 µM (active)
CCC(C)NC(=O)CSc1nc2ccsc2c(=O)n1NC(=O)c1ccccc1 (configuration not stated),IC50,Coagulation factor XII,> 50 µM (inactive)
Cc1ccc(C=Nn2c(-c3ccncc3)n[nH]c2=S)cc1,IC50,[8],16.1 µM (active)
same,IC50,Phosphomannomutase 2,> 100 µM (inactive)
Cc1cccc(C(=O)NC(=S)N2CCN(C)CC2)c1,AC50,Cytochrome P450 2C9,inconclusive
NC(Cc1cccc(-c2ccccc2CP(=O)(O)O)c1)C(=O)O (configuration not stated),AC50,[1],35.5 µM (inconclusive)
C[C@@H](O)C1NC(=O)[C@H](CCCCN)NC(=O)c2cc([N+](=O)[O-])cc(F)c2NCCCC[C@@H](C(N)=O)NC1=O (some centres not stated),IC50,Bcl-2-related protein A1,> 20 µM (inactive)
same,IC50,[5],> 20 µM (inactive)
same,IC50,[7],14.2 µM (active)
O=C(NCC(=O)N1CCN(S(=O)(=O)/C=C/c2ccccc2)CC1)c1ccccc1F,IC50,Coagulation factor XII,> 50 µM (inactive)
CCc1ccc(-c2nc(CSCC(=O)NCc3ccco3)c(C)o2)cc1,EC50,[9],0.462 µM (active)
same,EC50,[10],12.8 µM (active)
same,EC50,[11],14.5 µM (active)
same,IC50,HEK293,> 80 µM (inactive)
O=C(O)c1cccc(CN2CCCCC2)c1,AC50,Cytochrome P450 2C9,inconclusive
O=C1NC(=S)S/C1=C/c1ccc(Oc2cnccn2)cc1,AC50,[12],2.81 µM (active)
CC(=O)c1sc(N2CCOCC2)nc1-c1ccccc1,EC50,[13],> 8.82 µM (not active)
same,EC50,[14],> 26.5 µM (inactive)
same,EC50,[15],> 79.4 µM (not active)
CCN(CCCNC(=O)CSc1cc(=O)n(C)c2cc(Cl)ccc12)Cc1ccccc1,EC50,[13],> 79.4 µM (not active)
same,EC50,[14],> 79.4 µM (inactive)
same,EC50,[15],> 79.4 µM (not active)
CN(C)S(=O)(=O)c1ccc(NC(=O)/C=C/c2ccccc2Cl)cc1,AC50,CAAX prenyl protease 2,4.18 µM (active)
Cc1cc(C)c2sc(N(CCCN(C)C)C(=O)c3ccc(S(=O)(=O)N(C)Cc4ccccc4)cc3)nc2c1,IC50,Bcl-2-related protein A1,> 20 µM (inactive)
same,IC50,[5],2.65 µM (active)
same,IC50,[7],4.77 µM (active)
CCN1CCN(C(=O)CSc2cc(=O)n(C)c3ccccc23)CC1,EC50,[13],> 79.4 µM (not active)
same,EC50,[14],> 79.4 µM (inactive)
same,EC50,[15],> 79.4 µM (not active)
COc1ccc(/C=C(\C#N)C(N)=O)c(OC)c1,AC50,Cytochrome P450 2C9,inconclusive
O=C(Cn1sc2ccccc2c1=O)NCc1ccccc1,IC50,Hexokinase,5.72 µM (active)
CC(C)(C)c1ccc(C(=O)N2CCC(=O)c3ccc(Cl)cc32)cc1,IC50,Hexokinase,> 25 µM (inactive)
CCCCCCC(=O)Nc1cc(Cl)ccc1C(=O)O,IC50,Hexokinase,> 25 µM (inactive)
